Experimental data as given in patent US11166924B2, “N-methyl-d-aspartate receptor allosteric modulators and methods for their use” (Qingdao Primedicine Pharmaceutical Company, Ltd., priority 2016, dated 2021).
Like-named read-outs stand apart in the source and are kept apart here.

Legend:
Assay type in all cases: cell-based
GluN1/GluN2A NMDARs = target: T1, GluN1/GluN2A NMDARs (Rattus norvegicus, UniProt P35439+Q00959); assay: Whole-cell patch clamp recordings in HEK293 cells transfected with GluN1/GluN2A; conditions: for Enhancement of NMDA-mediated currents: compared to glutamate alone; for Selectivity for GluN1/GluN2A versus GluN1/GluN2B NMDARs: FIG. 2, HEK293 cells expressing GluN1/GluN2A and GluN1/GluN2B; for Normalized Potentiation: positive modulation of GluN1/GluN2A NMDARs, concentration not given
T1 construct: expressed in transfected cells; host or cells: HEK293
T1 sequence (Q00959 23-1464, other chains not shown): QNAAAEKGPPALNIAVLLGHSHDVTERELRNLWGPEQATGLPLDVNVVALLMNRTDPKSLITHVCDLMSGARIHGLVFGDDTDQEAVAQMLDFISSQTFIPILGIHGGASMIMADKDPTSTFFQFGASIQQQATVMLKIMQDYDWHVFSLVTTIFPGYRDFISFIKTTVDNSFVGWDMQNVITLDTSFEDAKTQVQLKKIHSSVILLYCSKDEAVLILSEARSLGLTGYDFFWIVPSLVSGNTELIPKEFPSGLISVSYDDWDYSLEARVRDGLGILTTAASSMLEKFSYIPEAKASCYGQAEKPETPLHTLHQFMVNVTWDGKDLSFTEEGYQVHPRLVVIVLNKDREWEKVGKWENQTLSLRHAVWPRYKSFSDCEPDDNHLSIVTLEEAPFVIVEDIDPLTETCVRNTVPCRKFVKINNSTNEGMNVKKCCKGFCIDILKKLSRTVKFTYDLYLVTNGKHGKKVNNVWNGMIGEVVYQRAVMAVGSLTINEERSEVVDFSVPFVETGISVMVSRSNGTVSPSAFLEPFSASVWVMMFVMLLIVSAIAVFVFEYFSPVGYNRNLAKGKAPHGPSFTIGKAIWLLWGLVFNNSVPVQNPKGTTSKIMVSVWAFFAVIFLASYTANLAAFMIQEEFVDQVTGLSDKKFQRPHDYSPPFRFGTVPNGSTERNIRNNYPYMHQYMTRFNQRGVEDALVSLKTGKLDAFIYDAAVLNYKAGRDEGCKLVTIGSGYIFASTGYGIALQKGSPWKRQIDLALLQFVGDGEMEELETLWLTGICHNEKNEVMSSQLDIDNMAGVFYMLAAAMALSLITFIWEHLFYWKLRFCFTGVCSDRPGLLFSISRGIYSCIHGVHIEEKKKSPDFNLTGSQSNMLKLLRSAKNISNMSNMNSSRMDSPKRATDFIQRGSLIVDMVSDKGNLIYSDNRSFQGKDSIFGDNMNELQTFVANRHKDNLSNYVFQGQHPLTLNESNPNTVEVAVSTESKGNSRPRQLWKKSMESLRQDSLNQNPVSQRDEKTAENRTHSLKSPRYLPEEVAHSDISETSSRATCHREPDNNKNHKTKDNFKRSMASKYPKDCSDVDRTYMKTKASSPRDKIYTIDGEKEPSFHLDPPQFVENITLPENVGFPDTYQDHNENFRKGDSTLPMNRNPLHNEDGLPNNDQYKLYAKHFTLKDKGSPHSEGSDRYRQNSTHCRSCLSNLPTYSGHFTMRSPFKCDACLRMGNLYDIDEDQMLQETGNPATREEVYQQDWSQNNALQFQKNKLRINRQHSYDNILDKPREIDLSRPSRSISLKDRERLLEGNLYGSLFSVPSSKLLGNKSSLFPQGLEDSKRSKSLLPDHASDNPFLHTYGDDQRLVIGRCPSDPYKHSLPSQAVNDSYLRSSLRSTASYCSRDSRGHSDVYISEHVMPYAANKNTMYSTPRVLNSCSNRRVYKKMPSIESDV
Procedure, shortened: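 Rat GluN1/GluN2A (1:1) transiently expressed in HEK293, recorded 48 h post-transfection by whole-cell voltage clamp at −60 mV, room temperature. CsCl/BAPTA pipette solution, pH 7.4 bath, glutamate/NMDA-evoked currents by fast perfusion. ≥6 cells per compound; EC50, relative efficacy versus maximal glutamate response and Hill slope from pooled dose-response fits.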

GluN1/GluN2B NMDARs = target: T2, GluN1/GluN2B NMDARs (Rattus norvegicus, UniProt P35439+Q00960); assay: Whole-cell patch clamp recordings in HEK293 cells transfected with GluN1/GluN2B
T2 construct: expressed in transfected cells; host or cells: HEK293

[1] = target: NMDARs in cultured hippocampal neurons (Rattus norvegicus, UniProt P35439+Q00959); assay: Whole-cell voltage clamp recordings of NMDAR currents in cultured hippocampal/cortical neurons
NMDARs in cultured hippocampal neurons, sequence (Q00959 23-1464, other chains not shown): as above

GluN1/GluN2A^Q111A = target: T3, GluN1/GluN2A^Q111A (Rattus norvegicus, UniProt P35439+Q00959, Q111A); assay: Patch clamp in HEK293 cells expressing mutant GluN1/GluN2A Q111A
T3 construct: expressed in transfected cells; host or cells: HEK293
T3 sequence (Q00959 23-1464 Q111A, other chains not shown): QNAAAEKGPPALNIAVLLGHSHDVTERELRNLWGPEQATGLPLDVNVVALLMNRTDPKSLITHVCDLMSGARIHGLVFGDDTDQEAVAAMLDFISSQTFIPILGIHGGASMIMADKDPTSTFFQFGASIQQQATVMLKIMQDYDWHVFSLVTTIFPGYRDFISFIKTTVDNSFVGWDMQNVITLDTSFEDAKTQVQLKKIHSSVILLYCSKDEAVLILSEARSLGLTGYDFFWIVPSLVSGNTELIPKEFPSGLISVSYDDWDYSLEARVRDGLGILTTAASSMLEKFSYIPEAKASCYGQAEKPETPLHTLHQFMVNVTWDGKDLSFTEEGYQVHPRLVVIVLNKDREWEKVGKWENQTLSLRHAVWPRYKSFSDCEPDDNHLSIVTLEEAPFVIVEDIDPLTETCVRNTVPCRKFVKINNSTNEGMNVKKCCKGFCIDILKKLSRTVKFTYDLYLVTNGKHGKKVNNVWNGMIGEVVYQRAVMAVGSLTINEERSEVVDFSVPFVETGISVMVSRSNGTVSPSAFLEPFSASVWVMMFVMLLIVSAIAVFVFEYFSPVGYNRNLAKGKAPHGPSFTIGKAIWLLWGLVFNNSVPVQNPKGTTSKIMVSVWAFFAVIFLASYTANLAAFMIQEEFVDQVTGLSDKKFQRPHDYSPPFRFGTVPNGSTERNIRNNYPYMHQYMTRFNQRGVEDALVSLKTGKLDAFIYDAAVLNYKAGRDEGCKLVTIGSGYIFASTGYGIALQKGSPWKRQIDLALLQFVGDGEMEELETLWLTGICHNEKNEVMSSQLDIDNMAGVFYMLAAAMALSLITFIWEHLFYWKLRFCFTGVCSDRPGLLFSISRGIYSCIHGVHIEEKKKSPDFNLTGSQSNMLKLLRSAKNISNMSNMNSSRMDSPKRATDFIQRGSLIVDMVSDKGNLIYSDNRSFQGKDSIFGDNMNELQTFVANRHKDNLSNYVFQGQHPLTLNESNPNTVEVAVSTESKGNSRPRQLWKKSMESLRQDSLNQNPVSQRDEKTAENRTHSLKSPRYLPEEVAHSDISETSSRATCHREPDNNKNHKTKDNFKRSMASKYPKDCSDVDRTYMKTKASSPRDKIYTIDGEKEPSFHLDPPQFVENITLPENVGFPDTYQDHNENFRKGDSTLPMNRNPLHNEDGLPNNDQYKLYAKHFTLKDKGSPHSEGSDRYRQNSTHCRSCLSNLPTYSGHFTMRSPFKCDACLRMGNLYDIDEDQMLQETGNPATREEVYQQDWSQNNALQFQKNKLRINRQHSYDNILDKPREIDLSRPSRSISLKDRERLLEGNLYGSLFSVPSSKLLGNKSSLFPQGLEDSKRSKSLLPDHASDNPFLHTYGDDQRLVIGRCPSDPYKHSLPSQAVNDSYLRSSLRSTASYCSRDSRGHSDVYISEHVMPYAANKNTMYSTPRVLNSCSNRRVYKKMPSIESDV
Method: (§1) Whole cell patch-clamp recordings were performed under voltage-clamp mode using an Axopatch 200B or 1D patch-clamp amplifier (Molecular Devices). Whole-cell currents were recorded at a holding potential of −60 mV unless indicated elsewhere, and signals were filtered at 2 kHz, digitized at 10 kHz (Digidata 1322A). Recording pipettes (3-5 MΩ) were filled with intracellular solution containing (mM): CsCl 140, HEPES 10, Mg-ATP 4, QX-314 5, pH 7.20; osmolarity, 290-295 mOsm. BAPTA (10 mM) was added in the intracellular solution (unless otherwise specified). The coverslips were continuously superfused with extracellular solution containing (mM): NaCl 140, KCl 5.4, HEPES 10, CaCl2 1.3, glucose 20, pH 7.4; osmolarity, 305-315 mOsm. NMDA-induced currents were applied by NMDA through perfusion fast-step (Warner Instruments). With perfusion fast-step system, NMDA application was achieved by using a two-square barrel glass tubing and depending on the age of the cultured neurons, CNQX (10 μM), TTX (0.5 μM) or BIC (10 μM) were added in the extracellular solution to minimize the activation of ionotropic glutamate receptors and voltage-gated sodium channels, respectively. All experiments were performed at room temperature. Recordings from at least six HEK293 cells/neurons were performed for all active compounds. Data were pooled among HEK293 cells or primary neurons and composite dose-response data were fitted by the equation Percentage Response=100×Relative Efficacy/[1+(EC50/Concentration)nH], where EC50 is the concentration of agonist that produces a half-maximal response, relative efficacy is the response at maximally effective concentration relative to the maximal response of glutamate, and nH is the Hill slope.
(§2) The site-directed mutagenesis of GluN1 or GluN2A subunits were performed by using the QuikChange method (Stratagene). All mutant clones were confirmed by DNA sequencing. Wild-type or mutant subunits were transfected in HEK293 cells and subjected to electrophysiology examinations. […]

GluN1/GluN2A^F177S = target: T4, GluN1/GluN2A^F177S (Rattus norvegicus, UniProt P35439+Q00959, F177S); assay: Patch clamp in HEK293 cells expressing mutant GluN1/GluN2A F177S
T4 construct: expressed in transfected cells; host or cells: HEK293
Method: as §1, §2

GluN1^R115E/GluN2A = target: T5, GluN1^R115E/GluN2A (Rattus norvegicus, UniProt P35439+Q00959, R115E); assay: Patch clamp in HEK293 cells expressing mutant GluN1 R115E/GluN2A
T5 construct: expressed in transfected cells; host or cells: HEK293
Method: as §1, with “Data were pooled among HEK293 cells or primary neurons and composite dose-response data were fitted by the equation Percentage Response=100×Relative Efficacy/[1+(EC50/Concentration)nH], where EC50 is the concentration of agonist that produces a half-maximal response, relative efficacy is the response at maximally effective concentration relative to the maximal response of glutamate, and nH is the Hill slope.” left out

SMILES: COc1cccc(/C=N/NC(=O)c2ccccc2C)c1O [Npam02, (E)-N′-(2-hydroxy-3-methoxybenzylidene)-2-methylbenzohydrazide]
- Currents induced by compound applied alone (GluN1/GluN2A NMDARs; 100 μM alone): no changes of inward or outward currents
- Enhancement of NMDA-mediated currents (GluN1/GluN2A NMDARs; 100 μM co-applied with co-agonists): 38.85±3.70%
- Modulation effect, wild-type (GluN1/GluN2A NMDARs; 100 μM, wild-type GluN1/GluN2A, FIG. 8c): 41.75±2.62%
- Enhancement of NMDA-mediated currents (GluN1/GluN2A NMDARs; 200 μM co-applied with co-agonists): 71.69±5.03%
- Selectivity for GluN1/GluN2A versus GluN1/GluN2B NMDARs (GluN1/GluN2A NMDARs): selective for GluN1/GluN2A NMDARs
- Normalized Potentiation (GluN1/GluN2A NMDARs; Table 1): 243.57 ± 24.81%
- Currents induced by compound on its own (GluN1/GluN2B NMDARs): did not induce currents on its own
- Potentiation of NMDAR currents (GluN1/GluN2B NMDARs; 100 μM): did not exhibit potentiation of NMDAR currents
- activation at 100 µM (GluN1/GluN2B NMDARs; HEK293, Table 2, 100 μM, read-out: Normalized Potentiation GluN1/GluN2B): -4.82 ± 2.83%
- Currents induced by compound on its own [1]: not able to induce inward or outward currents on its own
- activation at 100 µM ([1]; 100 μM bath, NMDA 5 uM, glycine 2 μM, compared to NMDA control, read-out: Modulation of NMDAR currents): 43 ± 6.55%
- Modulation effect, GluN2A Gln111Ala (GluN1/GluN2A^Q111A; 100 μM, FIG. 8c): 30.69±1.60%
- Modulation effect, GluN2A Phe177Ser (GluN1/GluN2A^F177S; 100 μM, FIG. 8c): 22.86±1.12%

SMILES: CCOc1cc(Cl)c(Cl)c(/C=N/NC(=O)c2ccccc2Br)c1O [Npam43, (E)-2-bromo-N′-(2,3-dichloro-5-ethoxy-6-hydroxybenzylidene)benzohydrazide]
- Currents evoked by compound on its own (GluN1/GluN2A NMDARs): did not evoke currents on its own
- Enhancement of NMDA-mediated currents (GluN1/GluN2A NMDARs; 10 μM co-applied with co-agonists): dramatically enhanced
- Selectivity for GluN1/GluN2A versus GluN1/GluN2B NMDARs (GluN1/GluN2A NMDARs): selective for GluN1/GluN2A NMDARs
- Normalized Potentiation (GluN1/GluN2A NMDARs; Table 1): 363.52 ± 27.3%
- EC50 (GluN1/GluN2A NMDARs; Table 1, potentiation, read-out: EC50): 270 nM
- Relative potentiation (GluN1/GluN2A NMDARs; Table 3, GluN1^WT/GluN2A^WT): 209 ± 6.7%
- Saturation of enhancement relative to co-agonists alone baseline (GluN1/GluN2A NMDARs; dose-response, FIG. 9): ~350%
- EC50 (GluN1/GluN2A NMDARs; dose-response, FIG. 9, read-out: EC50 of enhancement of GluN1/GluN2A currents): 240 ± 50 nM
- EC50 (GluN1/GluN2A NMDARs; dose-response, FIG. 9, read-out: pEC50 of enhancement of GluN1/GluN2A currents (converted)): ~243 nM
- Potentiation of NMDAR currents (GluN1/GluN2B NMDARs; 10 μM): did not exhibit potentiation
- Dose-dependent enhancement of currents (GluN1/GluN2B NMDARs; GluN2B-containing NMDARs recordings): No dose-dependent enhancement of currents
- activation at 10 µM ([1]; 10 μM, read-out: Potentiation at saturation point, above control level baseline): 322 ± 27%
- Selective potentiation of GluN1/GluN2A NMDARs in hippocampal neurons ([1]; FIG. 12, with ifenprodril, NVP-AAM077, AP5 controls): selectively potentiates GluN1/GluN2A NMDARs
- Shift of NMDA dose-response curve ([1]; Npam43 5 μM): shifted left
- Net Difference potentiation (GluN1/GluN2A^Q111A; GluN2A Q111A, normalized to Npam43 response in wild-type GluN1/GluN2A): −38.4±0.78%
- Relative potentiation (GluN1/GluN2A^Q111A; Table 3, GluN2A Q111A): 129 ± 6.7%
- Net Difference potentiation (GluN1/GluN2A^F177S; GluN2A F177S, normalized to wild-type): −61.7 ± 0.03%
- Relative potentiation (GluN1/GluN2A^F177S; Table 3, GluN2A F177S): 79.9 ± 2.6%
- Relative potentiation (GluN1^R115E/GluN2A; Table 3): 255 ± 3.5%
- Net Difference potentiation (GluN1^R115E/GluN2A; normalized to wild-type): +22.0 ± 0.40%
